The experiment deals with Receptor tyrosine-protein kinase erbB-2 (Homo sapiens, UniProt P04626). The experiment is described as follows: BT474 Cellular Assay (HER2 Inhibition). As for the experimental part: Inhibition of phosphor HER2 was determined by enzyme-linked immunosorbent assay (ELISA) in BT474 cells. BT474 cell line was purchased from ATCC (catalog number HTB-20). Human Phospho-ErbB2 ELISA kit was purchased from R&D systems (catalog number DYC1768).

As a reminder, the IC50 is the midpoint of a concentration-inhibition curve.

Receptor tyrosine-protein kinase erbB-2, sequence (P04626 whole entry): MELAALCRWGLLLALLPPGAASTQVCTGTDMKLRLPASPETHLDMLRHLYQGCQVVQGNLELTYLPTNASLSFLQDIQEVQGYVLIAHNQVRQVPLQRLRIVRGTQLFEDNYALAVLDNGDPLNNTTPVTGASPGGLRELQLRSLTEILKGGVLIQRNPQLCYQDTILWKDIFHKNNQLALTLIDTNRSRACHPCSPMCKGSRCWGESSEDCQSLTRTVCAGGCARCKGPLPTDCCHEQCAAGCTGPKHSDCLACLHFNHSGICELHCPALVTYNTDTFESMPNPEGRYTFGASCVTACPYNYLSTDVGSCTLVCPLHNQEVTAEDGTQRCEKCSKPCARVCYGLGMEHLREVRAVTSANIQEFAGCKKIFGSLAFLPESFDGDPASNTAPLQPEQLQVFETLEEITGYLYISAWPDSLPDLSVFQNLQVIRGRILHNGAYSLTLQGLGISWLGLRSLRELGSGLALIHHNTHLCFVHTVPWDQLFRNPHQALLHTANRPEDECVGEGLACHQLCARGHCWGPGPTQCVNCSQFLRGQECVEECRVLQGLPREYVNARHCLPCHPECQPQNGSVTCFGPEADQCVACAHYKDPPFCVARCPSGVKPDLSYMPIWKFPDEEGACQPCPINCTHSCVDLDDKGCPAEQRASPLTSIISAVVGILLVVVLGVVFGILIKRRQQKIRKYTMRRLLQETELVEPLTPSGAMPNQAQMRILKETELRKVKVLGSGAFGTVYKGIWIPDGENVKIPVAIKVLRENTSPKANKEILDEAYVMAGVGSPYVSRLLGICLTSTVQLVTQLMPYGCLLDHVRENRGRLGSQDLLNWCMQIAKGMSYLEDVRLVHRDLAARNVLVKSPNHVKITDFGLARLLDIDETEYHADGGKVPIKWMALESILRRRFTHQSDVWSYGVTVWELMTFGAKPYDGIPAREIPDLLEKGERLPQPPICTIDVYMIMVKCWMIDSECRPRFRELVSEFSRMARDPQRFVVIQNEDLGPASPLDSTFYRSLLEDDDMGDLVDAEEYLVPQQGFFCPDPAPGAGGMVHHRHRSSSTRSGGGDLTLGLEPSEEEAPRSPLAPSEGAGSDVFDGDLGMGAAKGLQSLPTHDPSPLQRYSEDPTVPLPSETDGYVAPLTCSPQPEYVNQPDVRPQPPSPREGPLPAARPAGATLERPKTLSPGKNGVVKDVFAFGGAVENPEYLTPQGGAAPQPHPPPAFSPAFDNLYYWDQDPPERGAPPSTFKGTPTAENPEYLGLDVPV

With `Cc1cc(Nc2ncnc3ccc(OC(F)(F)F)c(O[C@H]4CCN(C)CC4(F)F)c23)ccc1Oc1cc2ncnn2cn1` [US11723908, Example 73], half-maximal inhibition (IC50) required 145 nM.

The values are drawn from BindingDB's records for patent US11723908 (Suzhou Zanrong Pharma, 2023).
